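Each compound was tested at five concentrations against cells in 96-well plates for 48 hours. GI50 marks 50% less growth. TGI: total growth inhibition.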
Columns and labels:
Experiment in all cases: NCI anticancer screen, dose series, 48 h
786-0 renal = test system: 786-0 renal
A498 renal = test system: A498 renal
A549 NSCLC = test system: A549 NSCLC
ACHN renal = test system: ACHN renal
BT-549 breast = test system: BT-549 breast
CAKI-1 renal = test system: CAKI-1 renal
CCRF-CEM leukemia = test system: CCRF-CEM leukemia
COLO 205 colon = test system: COLO 205 colon
DU-145 prostate = test system: DU-145 prostate
EKVX NSCLC = test system: EKVX NSCLC
HCC-2998 colon = test system: HCC-2998 colon
HCT-116 colon = test system: HCT-116 colon
HCT-15 colon = test system: HCT-15 colon
HL-60(TB) leukemia = test system: HL-60(TB) leukemia
HOP-62 NSCLC = test system: HOP-62 NSCLC
HOP-92 NSCLC = test system: HOP-92 NSCLC
HS 578T breast = test system: HS 578T breast
HT29 colon = test system: HT29 colon
K-562 leukemia = test system: K-562 leukemia
KM12 colon = test system: KM12 colon
LOX IMVI melanoma = test system: LOX IMVI melanoma
M14 melanoma = test system: M14 melanoma
MALME-3M melanoma = test system: MALME-3M melanoma
MCF7 breast = test system: MCF7 breast
MDA-MB-231 breast = test system: MDA-MB-231 breast
MDA-MB-435 = test system: MDA-MB-435
MOLT-4 leukemia = test system: MOLT-4 leukemia
NCI-H226 lung = test system: NCI-H226 lung
NCI-H23 lung = test system: NCI-H23 lung
NCI-H460 lung = test system: NCI-H460 lung
NCI-H522 lung = test system: NCI-H522 lung
OVCAR-3 ovarian = test system: OVCAR-3 ovarian
OVCAR-4 ovarian = test system: OVCAR-4 ovarian
OVCAR-5 ovarian = test system: OVCAR-5 ovarian
OVCAR-8 ovarian = test system: OVCAR-8 ovarian
PC-3 prostate = test system: PC-3 prostate
RPMI-8226 leukemia = test system: RPMI-8226 leukemia
RXF 393 renal = test system: RXF 393 renal
SF-268 CNS = test system: SF-268 CNS
SF-295 CNS = test system: SF-295 CNS
SF-539 CNS = test system: SF-539 CNS
SK-MEL-28 melanoma = test system: SK-MEL-28 melanoma
SK-MEL-5 melanoma = test system: SK-MEL-5 melanoma
SK-OV-3 ovarian = test system: SK-OV-3 ovarian
SN12C renal = test system: SN12C renal
SNB-19 CNS = test system: SNB-19 CNS
SNB-75 CNS = test system: SNB-75 CNS
SR leukemia = test system: SR leukemia
SW-620 colon = test system: SW-620 colon
T-47D breast = test system: T-47D breast
TK-10 renal = test system: TK-10 renal
U251 CNS = test system: U251 CNS
UACC-257 melanoma = test system: UACC-257 melanoma
UACC-62 melanoma = test system: UACC-62 melanoma
UO-31 renal = test system: UO-31 renal

COc1cc(/C=C/C(=O)c2cc(OC)c(OC)c(OC)c2)cc(OC)c1OC
GI50 (786-0 renal): 3.07 µM
TGI (786-0 renal): 11.3 µM
GI50 (A498 renal): 2.47 µM
TGI (A498 renal): 9.47 µM
GI50 (A549 NSCLC): 3.74 µM
TGI (A549 NSCLC): 46.1 µM
GI50 (ACHN renal): 4.73 µM
TGI (ACHN renal): 46.8 µM
GI50 (BT-549 breast): 2.48 µM
TGI (BT-549 breast): 9.26 µM
GI50 (CAKI-1 renal): 1.23 µM
TGI (CAKI-1 renal): 3.87 µM
GI50 (CCRF-CEM leukemia): 2.25 µM
TGI (CCRF-CEM leukemia): > 100 µM
GI50 (COLO 205 colon): 9.09 µM
TGI (COLO 205 colon): 25.8 µM
GI50 (DU-145 prostate): 2.03 µM
TGI (DU-145 prostate): 5.95 µM
GI50 (EKVX NSCLC): 2.63 µM
TGI (EKVX NSCLC): 21.5 µM
GI50 (HCC-2998 colon): 2.95 µM
TGI (HCC-2998 colon): 6.65 µM
GI50 (HCT-116 colon): 2.3 µM
TGI (HCT-116 colon): 8.74 µM
GI50 (HCT-15 colon): 3.41 µM
TGI (HCT-15 colon): 62.9 µM
GI50 (HL-60(TB) leukemia): 1.21 µM
TGI (HL-60(TB) leukemia): 11.2 µM
GI50 (HOP-62 NSCLC): 4.07 µM
TGI (HOP-62 NSCLC): 18.2 µM
GI50 (HOP-92 NSCLC): 2.53 µM
TGI (HOP-92 NSCLC): 20.5 µM
GI50 (HS 578T breast): 2.76 µM
TGI (HS 578T breast): 59.1 µM
GI50 (HT29 colon): 3.64 µM
TGI (HT29 colon): 15 µM
GI50 (K-562 leukemia): 2.46 µM
TGI (K-562 leukemia): > 100 µM
GI50 (KM12 colon): 1.98 µM
TGI (KM12 colon): 4.84 µM
GI50 (LOX IMVI melanoma): 2.74 µM
TGI (LOX IMVI melanoma): 10.9 µM
GI50 (M14 melanoma): 2.82 µM
TGI (M14 melanoma): 12.7 µM
GI50 (MALME-3M melanoma): 2.48 µM
TGI (MALME-3M melanoma): 19.6 µM
GI50 (MCF7 breast): 3.05 µM
TGI (MCF7 breast): 15.3 µM
GI50 (MDA-MB-231 breast): 6.89 µM
TGI (MDA-MB-231 breast): > 100 µM
GI50 (MDA-MB-435): 2.28 µM
TGI (MDA-MB-435): 8.11 µM
GI50 (MOLT-4 leukemia): 2.8 µM
TGI (MOLT-4 leukemia): 48.6 µM
GI50 (NCI-H226 lung): 6.36 µM
TGI (NCI-H226 lung): 87.4 µM
GI50 (NCI-H23 lung): 3.15 µM
TGI (NCI-H23 lung): 13.7 µM
GI50 (NCI-H460 lung): 1.89 µM
TGI (NCI-H460 lung): 4.07 µM
GI50 (NCI-H522 lung): 3.09 µM
TGI (NCI-H522 lung): 12.1 µM
GI50 (OVCAR-3 ovarian): 1.91 µM
TGI (OVCAR-3 ovarian): 4.21 µM
GI50 (OVCAR-4 ovarian): 3.63 µM
TGI (OVCAR-4 ovarian): 57.8 µM
GI50 (OVCAR-5 ovarian): 5.68 µM
TGI (OVCAR-5 ovarian): 20.1 µM
GI50 (OVCAR-8 ovarian): 3.49 µM
TGI (OVCAR-8 ovarian): > 100 µM
GI50 (PC-3 prostate): 5.32 µM
TGI (PC-3 prostate): 27.8 µM
GI50 (RPMI-8226 leukemia): 2.56 µM
TGI (RPMI-8226 leukemia): 19.4 µM
GI50 (RXF 393 renal): 2.81 µM
TGI (RXF 393 renal): 11.4 µM
GI50 (SF-268 CNS): 2.77 µM
TGI (SF-268 CNS): 10 µM
GI50 (SF-295 CNS): 2.18 µM
TGI (SF-295 CNS): 7.85 µM
GI50 (SF-539 CNS): 3.21 µM
TGI (SF-539 CNS): 12.9 µM
GI50 (SK-MEL-28 melanoma): 8.57 µM
TGI (SK-MEL-28 melanoma): 24.3 µM
GI50 (SK-MEL-5 melanoma): 8.33 µM
TGI (SK-MEL-5 melanoma): 21.1 µM
GI50 (SK-OV-3 ovarian): 11.5 µM
TGI (SK-OV-3 ovarian): > 100 µM
GI50 (SN12C renal): 4.02 µM
TGI (SN12C renal): 20.8 µM
GI50 (SNB-19 CNS): 11 µM
TGI (SNB-19 CNS): 27.3 µM
GI50 (SNB-75 CNS): 2.31 µM
TGI (SNB-75 CNS): 9.41 µM
GI50 (SR leukemia): 1.46 µM
TGI (SR leukemia): 8.41 µM
GI50 (SW-620 colon): 2.18 µM
TGI (SW-620 colon): 5.67 µM
GI50 (T-47D breast): 3.5 µM
TGI (T-47D breast): 31.5 µM
GI50 (TK-10 renal): 4.42 µM
TGI (TK-10 renal): 59.2 µM
GI50 (U251 CNS): 3.21 µM
TGI (U251 CNS): 16.6 µM
GI50 (UACC-257 melanoma): 4.35 µM
TGI (UACC-257 melanoma): 34.6 µM
GI50 (UACC-62 melanoma): 5.93 µM
TGI (UACC-62 melanoma): 20.4 µM
GI50 (UO-31 renal): 2.05 µM
TGI (UO-31 renal): 12.1 µM

— PubChem BioAssay (NCI)
